According to paper PMC9000482, “Inhibition of Aldose Reductase by Ginsenoside Derivatives via a Specific Structure Activity Relationship with Kinetics Mechanism and Molecular Docking Study” (Molecules, 2022):
Like-named read-outs stand apart in the source and are kept apart here. Marks after values point to notes of the source that are not given here.

Legend:
[1] = target: T1, rat lens aldose reductase (RLAR) (Rattus norvegicus, UniProt P07943); experiment: Enzyme kinetics of RLAR inhibition (Lineweaver-Burk and Dixon plots); format: biochemical
T1 construct: from tissue; host or cells: lens of Sprague-Dawley rats (supernatant of homogenate)
Method: Enzyme inhibition with different concentrations ([…]) was assessed by monitoring the effects of different concentrations of the substrate. The following concentrations of test ginsenosides were used in the RLAR kinetics analysis: 0, 2, 10, and 50 µM for protopanaxadiol; 0, 0.5, 2.5, and 10 µM for (20S) ginsenoside Rg3; 0, 0.5, 2.5, and 10 µM for (20R) ginsenoside Rg3; 0, 0.1, 0.5, and 2.5 µM for ginsenoside Rh2; 0, 2, 10, and 50 µM for protopanaxatriol; 0, 0.8, 4, and 20 µM for ginsenoside Rf; 0, 0.8, 4, and 20 µM for (20S) ginsenoside Rg2, and 0, 0.5, 2.5, and 10 µM for ginsenoside Rh1. Using Lineweaver-Burk double reciprocal plots, the inhibition type was determined using various concentrations of DL-glyceraldehyde (5, 10, and 20 mM) for HRAR as a substrate in the presence of different concentrations of the active test ginsenosides. The concentrations of test ginsenosides in the HRAR kinetics analysis were as follows: 0, 0.1, 0.5, and 2.5 µM for protopanaxadiol; 0, 0.5, 2, and 10 µM for (20S) ginsenoside Rg3; 0, 1, 5, and 20 µM for (20R) ginsenoside Rg3; 0, 0.5, 2.5, and 10 µM for ginsenoside Rh2; 0, 0.1, 0.5, and 2.5 µM for compound K; 0, 1, 5, and 10 µM for protopanaxatriol; 0, 0.5, 4, and 20 µM for (20R) ginsenoside Rg2, and 0, 0.2, 2, and 5 µM for ginsenoside Rh1. The Dixon plot is a graphical method [1/enzyme velocity (1/V)] against inhibitor concentration [I] used to determine the type of enzyme inhibition; it was used to identify the dissociation or inhibition constant (Ki) for the enzyme-inhibitor complex. Dixon plots (single reciprocal plots) for RLAR and HRAR inhibition were obtained in the presence of 100, 50, and 10 mM RLAR, and 20, 10, and 5 mM HRAR DL-glyceraldehyde substrate. Thus, the type of enzyme inhibition was determined by interpreting the Lineweaver-Burk plots, and the inhibition constants (Ki) were determined by interpreting the Dixon plots.

[2] = target: T1, rat lens aldose reductase (RLAR); experiment: RLAR inhibitory activity assay (rat lens homogenate, DL-glyceraldehyde substrate); format: biochemical; conditions: for RLAR inhibitory activity (in words): at the concentrations tested
Method: A rat lens homogenate was prepared with minor modifications according to the method reported by Hayman et al.. Briefly, the lenses were removed from the eyes of Sprague-Dawley rats weighing 250–280 g. They were homogenized in sodium phosphate buffer (pH 6.2) that was prepared with dibasic sodium phosphate (Na2HPO4∙H2O, 0.66 g) and monobasic sodium phosphate (NaH2PO4∙H2O, 1.27 g) in 100 mL of double-distilled H2O. The homogenate was clarified by centrifugation at 10,000 rpm at 4 °C for 20 min and the resultant supernatant was frozen until use. A crude AR homogenate with a specific activity of 6.5 U/mg was used in all enzyme inhibition evaluations. The reaction solution consisted of 620 µL of 100 mM sodium phosphate buffer (pH 6.2), 90 µL of AR homogenate, 90 µL of 1.6 mM NADPH, and 9 µL of sample, while the substrate included 90 µL of 50 mM DL-glyceraldehyde. […] AR activity was determined by measuring the decrease in NADPH absorption at 340 nm over a 4 min period on an Ultrospec®2100pro UV/Visible spectrophotometer. SWIFT II Applications software (Amersham Biosciences, NJ, USA) was used for all data analyses. The inhibition percentage (%) was calculated as follows in Equation (1):[1 − (∆Asample/min − ∆Ablank/min)/(∆Acontrol/min − ∆Ablank/min)] × 100(1) in which ∆Asample/min represents the test sample and substrate’s reduction in absorbance over 4 min, and ∆A control/min represents the same reduction in absorbance, but with 100% DMSO (dimethyl sulfoxide) rather than the test sample.

[3] = target: T2, human recombinant aldose reductase (HRAR) (Homo sapiens, UniProt P15121); experiment: HRAR inhibition assay (DL-glyceraldehyde substrate); format: biochemical; conditions: for HRAR inhibitory activity (in words): at the concentrations tested
T2 construct: purchased Wako Chemicals (Osaka, Japan)
Method: HRAR inhibition was studied according to Nishimura et al.. AR action was studied by measuring the reduction in NADPH absorption at 340 nm over a period of 1 min on a UV/visible spectrophotometer (Ultrospec®2100pro, Biochrom, Holliston, MA, USA). For HRAR inhibition, the HRAR enzyme (0.4 units), was used in all enzyme inhibition evaluations. […] The inhibition percentage (%) was measured as designated in the RLAR assay. The DA sample/min value characterizes the decrease in absorbance for 1 min with the test samples and substrate. The ability of each sample to inhibit HRAR was observed as an IC50 value (µM) and measured from the log-dose inhibition curve.

[4] = tested on: sorbitol accumulation in rat lens; experiment: Lens culture and intracellular sorbitol measurement (ex vivo); format: cell-based, Sprague-Dawley rats; conditions: 25 mM glucose, 6 days, sample 5 μg/mL, mean ± SD (n = 3); for inhibition at 5 µg/mL: Rattus norvegicus, 144 h
[5] = rat lens homogenate, substrate DL-glyceraldehyde, mean ± S.E.M. of triplicate experiments, read-out: RLAR IC50
[6] = substrate DL-glyceraldehyde, mean ± S.E.M. of triplicate experiments, read-out: HRAR IC50

Row | SMILES | IC50 [2, 5] [µM] | IC50 [3, 6] [µM] | further results
1 | CC(C)=CCCC(C)(O)C1CCC2(C)C1C(O)CC1C3(C)CCC(O)C(C)(C)C3C(OC3OC(CO)C(O)C(O)C3OC3OC(C)C(O)C(O)C3O)CC12C [(20S) ginsenoside Rg2] | 14.4 ± 0.99 | 15.7 ± 1.05 | RLAR Kiu (binding constant of inhibitor with enzyme-substrate complex) ([1]; Dixon plots): 17.04 µM; Ki ([1]; Dixon plots, read-out: RLAR Kic (binding constant of inhibitor with free enzyme)): 10.8 µM; RLAR Mode of Inhibition ([1]; Lineweaver-Burk plot): Mixed type; Sorbitol Content (mg)/Lens Wet Weight (g) [4]: 0.73 ± 0.01 ^c mg/g; inhibition at 5 µg/mL [4]: 57.5 ± 5.11%
2 | CC(C)=CCC[C@](C)(O[C@@H]1O[C@H](CO[C@@H]2OC[C@H](O[C@@H]3OC[C@@H](O)[C@H](O)[C@H]3O)[C@H](O)[C@H]2O)[C@@H](O)[C@H](O)[C@H]1O)[C@H]1CC[C@]2(C)[C@@H]1[C@H](O)C[C@@H]1[C@@]3(C)CC[C@H](O[C@@H]4O[C@H](CO)[C@@H](O)[C@H](O)[C@H]4O[C@@H]4O[C@H](CO)[C@@H](O)[C@H](O)[C@H]4O)C(C)(C)[C@@H]3CC[C@]12C [Ginsenoside Ra1] | > 200 | 75.6 ± 4.33 | RLAR inhibitory activity (in words) [2]: inactive
3 | CC(C)=CCC[C@](C)(O[C@@H]1O[C@H](CO[C@@H]2O[C@@H](CO)[C@H](O)[C@H]2O[C@@H]2OC[C@@H](O)[C@H](O)[C@H]2O)[C@@H](O)[C@H](O)[C@H]1O)[C@H]1CC[C@]2(C)[C@@H]1[C@H](O)C[C@@H]1[C@@]3(C)CC[C@H](O[C@@H]4O[C@H](CO)[C@@H](O)[C@H](O)[C@H]4O[C@@H]4O[C@H](CO)[C@@H](O)[C@H](O)[C@H]4O)C(C)(C)[C@@H]3CC[C@]12C [Ginsenoside Ra2] | 178 ± 7.39 | 82.43 ± 0.44 | –
4 | CC(C)=CCC[C@](C)(O[C@@H]1O[C@H](CO[C@@H]2O[C@H](CO)[C@@H](O)[C@H](O)[C@H]2O)[C@@H](O)[C@H](O)[C@H]1O)[C@H]1CC[C@]2(C)[C@@H]1[C@H](O)C[C@@H]1[C@@]3(C)CC[C@H](O[C@@H]4O[C@H](CO)[C@@H](O)[C@H](O)[C@H]4O[C@@H]4O[C@H](CO)[C@@H](O)[C@H](O)[C@H]4O)C(C)(C)[C@@H]3CC[C@]12C [Ginsenoside Rb1] | 103 ± 7.45 | 93.3 ± 5.76 | –
5 | CC(C)=CCC[C@](C)(O[C@@H]1O[C@H](CO[C@@H]2OC[C@H](O)[C@H](O)[C@H]2O)[C@@H](O)[C@H](O)[C@H]1O)[C@H]1CC[C@]2(C)[C@@H]1[C@H](O)C[C@@H]1[C@@]3(C)CC[C@H](O[C@@H]4O[C@H](CO)[C@@H](O)[C@H](O)[C@H]4O[C@@H]4O[C@H](CO)[C@@H](O)[C@H](O)[C@H]4O)C(C)(C)[C@@H]3CC[C@]12C [Ginsenoside Rb2] | 121 ± 3.43 | > 100 | HRAR inhibitory activity (in words) [3]: inactive
6 | CC(C)=CCC[C@](C)(O[C@@H]1O[C@H](CO[C@@H]2OC[C@@H](O)[C@H](O)[C@H]2O)[C@@H](O)[C@H](O)[C@H]1O)[C@H]1CC[C@]2(C)[C@@H]1[C@H](O)C[C@@H]1[C@@]3(C)CC[C@H](O[C@@H]4O[C@H](CO)[C@@H](O)[C@H](O)[C@H]4O[C@@H]4O[C@H](CO)[C@@H](O)[C@H](O)[C@H]4O)C(C)(C)[C@@H]3CC[C@]12C [Ginsenoside Rb3] | 117 ± 6.89 | 79 ± 4.55 | –
7 | CC(C)=CCC[C@](C)(O[C@@H]1O[C@H](CO[C@@H]2O[C@@H](CO)[C@H](O)[C@H]2O)[C@@H](O)[C@H](O)[C@H]1O)[C@H]1CC[C@]2(C)[C@@H]1[C@H](O)C[C@@H]1[C@@]3(C)CC[C@H](O[C@@H]4O[C@H](CO)[C@@H](O)[C@H](O)[C@H]4O[C@@H]4O[C@H](CO)[C@@H](O)[C@H](O)[C@H]4O)C(C)(C)[C@@H]3CC[C@]12C [Ginsenoside Rc] | > 200 | 56.6 ± 2.19 | RLAR inhibitory activity (in words) [2]: inactive
8 | CC(C)=CCC[C@](C)(O[C@@H]1O[C@H](CO)[C@@H](O)[C@H](O)[C@H]1O)[C@H]1CC[C@]2(C)[C@@H]1[C@H](O)C[C@@H]1[C@@]3(C)CC[C@H](O[C@@H]4O[C@H](CO)[C@@H](O)[C@H](O)[C@H]4O[C@@H]4O[C@H](CO)[C@@H](O)[C@H](O)[C@H]4O)C(C)(C)[C@@H]3CC[C@]12C [Ginsenoside Rd] | 89.6 ± 2.99 | 37.5 ± 1.33 | –
9 | CC(C)=CCC[C@](C)(O[C@@H]1O[C@H](CO)[C@@H](O)[C@H](O)[C@H]1O)[C@H]1CC[C@]2(C)[C@@H]1[C@H](O)C[C@@H]1[C@@]3(C)CC[C@H](O)C(C)(C)[C@@H]3[C@@H](O[C@@H]3O[C@H](CO)[C@@H](O)[C@H](O)[C@H]3O[C@@H]3O[C@@H](C)[C@H](O)[C@@H](O)[C@H]3O)C[C@]12C [Ginsenoside Re] | 81.3 ± 2.18 | 43.4 ± 3.11 | –
10 | CC(C)=CCC[C@](C)(O[C@@H]1O[C@H](CO)[C@@H](O)[C@H](O)[C@H]1O)[C@H]1CC[C@]2(C)[C@@H]1[C@H](O)C[C@@H]1[C@@]3(C)CC[C@H](O)C(C)(C)[C@@H]3[C@@H](O[C@@H]3O[C@H](CO)[C@@H](O)[C@H](O)[C@H]3O)C[C@]12C [Ginsenoside Rg1] | 49.5 ± 1.88 | 27.6 ± 2.12 | –
11 | CC(C)=CC/C=C(\C)[C@H]1CC[C@]2(C)[C@@H]1[C@H](O)C[C@@H]1[C@@]3(C)CC[C@H](O[C@@H]4O[C@H](CO)[C@@H](O)[C@H](O)[C@H]4O[C@@H]4O[C@H](CO)[C@@H](O)[C@H](O)[C@H]4O)C(C)(C)[C@@H]3CC[C@]12C [Ginsenoside Rg5] | – | – | IC50 [2]: 54.5 ± 1.22 µM; IC50 [3]: 38.6 ± 2.91 µM
12 | CC(=O)OC[C@H]1O[C@@H](O[C@H]2[C@H](O[C@H]3CC[C@@]4(C)C(CC[C@]5(C)C4C[C@@H](O)[C@@H]4C([C@](C)(CCC=C(C)C)O[C@@H]6O[C@H](CO[C@@H]7OC[C@H](O)[C@H](O)[C@H]7O)[C@@H](O)[C@H](O)[C@H]6O)CC[C@]45C)C3(C)C)O[C@H](CO)[C@@H](O)[C@@H]2O)[C@H](O)[C@@H](O)[C@@H]1O (stereo partly drawn) [Ginsenoside Rs1] | 143 ± 3.77 | > 100 | HRAR inhibitory activity (in words) [3]: inactive
13 | CC(=O)OC[C@H]1O[C@@H](O[C@H]2[C@H](O[C@H]3CC[C@@]4(C)C(CC[C@]5(C)C4C[C@@H](O)[C@@H]4C([C@](C)(CCC=C(C)C)O[C@@H]6O[C@H](CO[C@@H]7O[C@@H](CO)[C@H](O)[C@H]7O)[C@@H](O)[C@H](O)[C@H]6O)CC[C@]45C)C3(C)C)O[C@H](CO)[C@@H](O)[C@@H]2O)[C@H](O)[C@@H](O)[C@@H]1O (stereo partly drawn) [Ginsenoside Rs2] | 149 ± 4.22 | > 100 | HRAR inhibitory activity (in words) [3]: inactive
14 | O=c1c(O)c(-c2ccc(O)c(O)c2)oc2cc(O)cc(O)c12 [Quercetin, reference compound] | – | – | Sorbitol Content (mg)/Lens Wet Weight (g) [4]: 0.22 ± 0.01 ^a mg/g; inhibition at 5 µg/mL [4]: 87.2 ± 3.91%
15 | O=C(O)Cn1c(=O)n(Cc2ccc(Br)cc2F)c(=O)c2ccc(Cl)cc21 [Zenaresta, Zenarestat, reference compound] | – | – | IC50 [3]: 0.69 ± 0.11 µM
